The values below come from US20040097377A1, “Pesticidal spinosyn derivates” (priority 2003, published 2004).

The subject of data set [1] is Tobacco Budworm (Heliothis virescens). Briefly: Tobacco budworm feeding bioassay (egg and larval stage, 96-well agar diet plate, percent mortality). Particulars: average of three replicates. It is filed as in vivo. How it is done:
(§1) Tobacco Budworm (Heliothis virescens) and Beet Armyworm (Spodoptera littoralis) Feeding Bioassay
(§2) To compare insecticidal activities of the test compounds against egg and larval stage Heliothis virescens or Spodoptera littoralis, 50 ul of a 1:1 acetone:water solution was added to each sample and then solublized for one-hour using an orbital shaker. Each of the resulting sample solutions (50, 120, or 250 ppm) was then applied to a well in a 96-well microtiter plate, each well containing an artificial agar-based lepidoptera diet (modified Shorey diet, Southland Products, Lake Village, Ariz.). Each sample was run in triplicate. Plates were allowed to dry for about 4 hours, covered and held for infestation the next day. Each well of the treated plate was infested with 3-5 eggs (0-2 days old) of either H. virescens or S. littoralis. Plates were then covered with cotton batting and sealed with microplate lid. The treated plates were held inverted in an incubator (80+% rh) for six to seven days. Following the incubation period, the plates were graded for percent mortality using a binocular microscope. Data for each sample was reported as the average percent mortality of the three replicates.

The test system of data set [2] is Beet Armyworm (Spodoptera littoralis). The experiment in a line: Beet armyworm feeding bioassay (egg and larval stage, 96-well agar diet plate, percent mortality). Particulars: average of three replicates. It is filed as in vivo. How it is done:
as §1, §2

As to `CCC=CC1CCCC(OC2CCC(N(C)C)C(C)O2)C(C)C(=O)C2=CC3C(C=CC4CC(OC5OC(C)C(OC)C(OC)C5OC)CC43)C2CC(=O)O1` (stereo not shown) [Compound 1, for-rham-I, reference compound], the “Tobacco Budworm Diet (6 day) Mortality (%)” value (shortened to “Tobacco Budworm Diet … (%)”) in data set [1] (Rate 50 ppm) was determined as 100%. Also, the “Beet Armyworm Diet (6 day) Mortality (%)” value in data set [2] (Rate 50 ppm) came out at 100%.

With `CCC=CC1CCCC(OC2CCC(N(C)C)C(C)O2)C(C)C(=O)C2=CC3C(C=CC4CC(OC5OC(C)C(OC)C(OC)C5O)CC43)C2CC(=O)O1` (stereo not shown) [Compound 5, for-(2′-O-desmethylrham)-I], in data set [1] (Rate 50 ppm), the “Tobacco Budworm Diet … (%)” value is on record as 100%. In addition, the “Beet Armyworm Diet (6 day) Mortality (%)” value in data set [2] (Rate 50 ppm) is recorded as 100%.

For the compound `CCC=CC1CCCC(OC2CCC(N(C)C)C(C)O2)C(C)C(=O)C2=CC3C(C=CC4CC(OC5OC(C)C(OC)C(O)C5OC)CC43)C2CC(=O)O1` (stereo not shown) [Compound 6, for-(3′-O-desmethylrham)-I], the “Tobacco Budworm Diet … (%)” value in data set [1] (Rate 50 ppm) turned out to be 100%. In data set [2] (Rate 50 ppm), the “Beet Armyworm Diet (6 day) Mortality (%)” value came to 100%.

Turning to `CCC=CC1CCCC(OC2CCC(N(C)C)C(C)O2)C(C)C(=O)C2=CC3C(C=CC4CC(OC5OC(C)C(O)C(OC)C5OC)CC43)C2CC(=O)O1` (stereo not shown) [Compound 32, for-(4′-O-desmethyl-rham)-I], in data set [1] (Rate 50 ppm), the “Tobacco Budworm Diet … (%)” value is reported as 100%. In addition, the “Beet Armyworm Diet (6 day) Mortality (%)” value in data set [2] (Rate 50 ppm) is recorded as 100%.

Turning to `CCC=CC1CCCC(OC2CCC(N(C)C)C(C)O2)C(C)C(=O)C2=CC3C(C=CC4CC(OC5OC(C)C(O)C(O)C5O)CC43)C2CC(=O)O1` (stereo not shown) [Compound 33, for-(2′,3′,4′-tri-O-desmethyl-rham)-I], in data set [1] (Rate 50 ppm), the “Tobacco Budworm Diet … (%)” value is reported as 100%. The “Beet Armyworm Diet (6 day) Mortality (%)” value in data set [2] (Rate 50 ppm) stood at 100%.

On to `CCC=CC1CCCC(OC2CCC(N(C)C)C(C)O2)C(C)C(=O)C2=CC3C(C=CC4C(O)C(OC5OC(C)C(O)C(OC)C5OC)CC43)C2CC(=O)O1` (stereo not shown) [Compound 34, for-(4′-O-desmethyl-rham)-III], for which the “Tobacco Budworm Diet … (%)” value in data set [1] (Rate 50 ppm) was 100%. Further, in data set [2] (Rate 50 ppm), the “Beet Armyworm Diet (6 day) Mortality (%)” value was determined as 100%.

In the case of `CCC=CC1CCCC(OC2CCC(N(C)C)C(C)O2)C(C)C(=O)C2=CC3C(C=CC4CC(OC5OC(C)C(O)C(O)C5OC)CC43)C2CC(=O)O1` (stereo not shown) [Compound 37], the “Tobacco Budworm Diet … (%)” value in data set [1] (Rate 50 ppm) is given as 100%. For the same compound, the “Beet Armyworm Diet (6 day) Mortality (%)” value in data set [2] (Rate 50 ppm) is given as 100%.

As for `CCC=CC1CCCC(OC2CCC(N(C)C)C(C)O2)C(C)C(=O)C2=CC3C(C=CC4C(O)C(OC5OC(C)C(O)C(O)C5OC)CC43)C2CC(=O)O1` (stereo not shown) [Compound 40, for-(3′,4′-di-O-desmethyl-rham) III], in data set [1] (Rate 50 ppm), the “Tobacco Budworm Diet … (%)” value is 100%. Besides, in data set [2] (Rate 50 ppm), the “Beet Armyworm Diet (6 day) Mortality (%)” value is recorded as 93%.

As to `CCC=CC1CCCC(OC2CCC(N(C)C)C(C)O2)C(C)C(=O)C2=CC3C(C=CC4C(O)C(OC5OC(C)C(OC)C(O)C5OC)CC43)C2CC(=O)O1` (stereo not shown) [Compound 41, for-(3′-O-desmethyl-rham) III], in data set [1] (Rate 50 ppm), the “Tobacco Budworm Diet … (%)” value came to 100%. Besides, the “Beet Armyworm Diet (6 day) Mortality (%)” value in data set [2] (Rate 50 ppm) was 100%.

On to `CC=CC1CCCC(OC2CCC(N(C)C)C(C)O2)C(C)C(=O)C2=CC3C(C=CC4CC(OC5OC(C)C(O)C(O)C5OC)CC43)C2CC(=O)O1` (stereo not shown) [Compound 43, 24-desmethyl-for-(3′,4′-di-O-desmethyl-rham)-I], for which the “Tobacco Budworm Diet … (%)” value in data set [1] (Rate 50 ppm) was 33%. The “Beet Armyworm Diet (6 day) Mortality (%)” value in data set [2] (Rate 50 ppm) turned out to be 80%.

As to `CCC=CC1CCCC(OC2CCC(NC)C(C)O2)C(C)C(=O)C2=CC3C(C=CC4CC(OC5OC(C)C(OC)C(O)C5OC)CC43)C2CC(=O)O1` (stereo not shown) [Compound 137, (4″-N-desmethyl-for)-(3′-O-desmethyl-rham)-I], the “Tobacco Budworm Diet … (%)” value in data set [1] (Rate 120 ppm) is on record as 100%. In addition, the “Beet Armyworm Diet (6 day) Mortality (%)” value in data set [2] (Rate 120 ppm) came out at 100%.

In the case of `COC1C(C)OC(OC2CC3C=CC4C5CC(=O)OC(C=CC(C)O)CCCC(OC6CCC(N(C)C)C(C)O6)C(C)C(=O)C5=CC4C3C2)C(OC)C1O` (stereo not shown) [Compound 141, 24-hydroxy-for-(3′-O-desmethyl-rham)-I], the “Tobacco Budworm Diet … (%)” value in data set [1] (Rate 120 ppm) stood at 100%. Moreover, the “Beet Armyworm Diet (6 day) Mortality (%)” value in data set [2] (Rate 120 ppm) is on record as 67%.

With “for-(3′,4′-di-O-desmethyl-rham)-II [Compound 44]”, in data set [1] (Rate 50 ppm), the “Tobacco Budworm Diet … (%)” value is on record as 100%. The “Beet Armyworm Diet (6 day) Mortality (%)” value in data set [2] (Rate 50 ppm) was determined as 100%.

Consider “for-(3′,4′-di-O-desmethyl-rham)-IV [Compound 163]”, for which, in data set [1] (Rate 120 ppm), the “Tobacco Budworm Diet … (%)” value was found to be 100%. Moreover, the “Beet Armyworm Diet (6 day) Mortality (%)” value in data set [2] (Rate 120 ppm) worked out at 100%.
